According to ChEMBL document CHEMBL3885861, “Open TG-GATES”:

Species: Rattus norvegicus
Experiment: Open TG-GATES - Regimen: Single
Assay type: toxicity, organism-based, Sprague-Dawley
Design: regimen Single, gender Male, age 6 weeks
Details: in vivo, po, route gavage; for APTT / Bas / Eos / Fbg / Hb / Ht / Lym / MCH / MCHC / MCV / Mono / Neu / PT / Plat / RBC / Ret / WBC: tissue Blood; for KIDNEY_L / KIDNEY_R / KIDNEY_TOTAL: tissue Kidney; for LIVER: tissue Liver; for A/G / ALP / ALT / AST / BUN / CRE / Ca / Cl / DBIL / GLC / IP / K / LDH / Na / PL / RALB / TBIL / TC / TG / TP / gamma-GTP: tissue Plasma
[1] = 1200 mg/kg, 3 h, dose level Middle
[2] = 1200 mg/kg, 6 h, dose level Middle
[3] = 1200 mg/kg, 9 h, dose level Middle
[4] = 1200 mg/kg, 24 h, dose level Middle
[5] = 4000 mg/kg, 3 h, dose level High
[6] = 4000 mg/kg, 6 h, dose level High
[7] = 4000 mg/kg, 9 h, dose level High
[8] = 4000 mg/kg, 24 h, dose level High

CCO [ALCOHOL]
TERMINAL_BW [1]: 203.8 g
APTT [1]: 18.7 s
Bas [1]: 0%
Eos [1]: 1%
Fbg [1]: 200 mg/dL
Hb [1]: 13.2 g/dL
Ht [1]: 39.1%
Lym [1]: 72%
MCH [1]: 22.1 pg
MCHC [1]: 33.7%
MCV [1]: 65.5 fL
Mono [1]: 5.6%
Neu [1]: 21.6%
PT [1]: 12.4 s
Plat [1]: 108.6 x10_4/uL
RBC [1]: 596.8 x10_4/ul
Ret [1]: 8.1%
WBC [1]: 95.6 x10_2/uL
KIDNEY_L [1]: 0.9 g
KIDNEY_R [1]: 1 g
KIDNEY_TOTAL [1]: 1.9 g
LIVER [1]: 9.2 g
A/G [1]: 2.8
ALP [1]: 973.6 IU/L
ALT [1]: 38 IU/L
AST [1]: 69.8 IU/L
BUN [1]: 9 mg/dL
CRE [1]: 0.5 mg/dL
Ca [1]: 10.7 mg/dL
Cl [1]: 104.6 meq/L
DBIL [1]: 0.016 mg/dL
GLC [1]: 204.4 mg/dL
IP [1]: 8.9 mg/dL
K [1]: 4.5 meq/L
LDH [1]: 121.2 IU/L
Na [1]: 140 meq/L
PL [1]: 138 mg/dL
RALB [1]: 3.8 g/dL
TBIL [1]: 0.4 mg/dL
TC [1]: 74.8 mg/dL
TG [1]: 60.8 mg/dL
TP [1]: 5.2 g/dL
gamma-GTP [1]: 1.2 IU/L
TERMINAL_BW [2]: 203.8 g
APTT [2]: 17.5 s
Bas [2]: 0%
Eos [2]: 1.2%
Fbg [2]: 196.6 mg/dL
Hb [2]: 13.3 g/dL
Ht [2]: 39.9%
Lym [2]: 67%
MCH [2]: 21.7 pg
MCHC [2]: 33.3%
MCV [2]: 65 fL
Mono [2]: 12%
Neu [2]: 19.4%
PT [2]: 12.2 s
Plat [2]: 98.4 x10_4/uL
RBC [2]: 615.4 x10_4/ul
Ret [2]: 13.5%
WBC [2]: 87.4 x10_2/uL
KIDNEY_L [2]: 0.9 g
KIDNEY_R [2]: 1 g
KIDNEY_TOTAL [2]: 1.9 g
LIVER [2]: 9.2 g
A/G [2]: 2.4
ALP [2]: 827.2 IU/L
ALT [2]: 36 IU/L
AST [2]: 71 IU/L
BUN [2]: 11.4 mg/dL
CRE [2]: 0.5 mg/dL
Ca [2]: 10.5 mg/dL
Cl [2]: 105.2 meq/L
DBIL [2]: 0.066 mg/dL
GLC [2]: 203 mg/dL
IP [2]: 10.3 mg/dL
K [2]: 4.6 meq/L
LDH [2]: 87 IU/L
Na [2]: 140.8 meq/L
PL [2]: 132.4 mg/dL
RALB [2]: 3.8 g/dL
TBIL [2]: 0.4 mg/dL
TC [2]: 69.2 mg/dL
TG [2]: 59.4 mg/dL
TP [2]: 5.3 g/dL
gamma-GTP [2]: 1.8 IU/L
TERMINAL_BW [3]: 201.5 g
APTT [3]: 17.2 s
Bas [3]: 0%
Eos [3]: 1.6%
Fbg [3]: 204.2 mg/dL
Hb [3]: 13.5 g/dL
Ht [3]: 40.2%
Lym [3]: 73%
MCH [3]: 21.2 pg
MCHC [3]: 33.5%
MCV [3]: 63.3 fL
Mono [3]: 7.4%
Neu [3]: 18.2%
PT [3]: 12.1 s
Plat [3]: 114.7 x10_4/uL
RBC [3]: 635.8 x10_4/ul
Ret [3]: 9.9%
WBC [3]: 73.2 x10_2/uL
KIDNEY_L [3]: 0.9 g
KIDNEY_R [3]: 0.9 g
KIDNEY_TOTAL [3]: 1.9 g
LIVER [3]: 8.4 g
A/G [3]: 2.8
ALP [3]: 845 IU/L
ALT [3]: 28.8 IU/L
AST [3]: 61.6 IU/L
BUN [3]: 11 mg/dL
CRE [3]: 0.5 mg/dL
Ca [3]: 10.9 mg/dL
Cl [3]: 105.8 meq/L
DBIL [3]: 0.042 mg/dL
GLC [3]: 192 mg/dL
IP [3]: 10.7 mg/dL
K [3]: 4.7 meq/L
LDH [3]: 102 IU/L
Na [3]: 136.4 meq/L
PL [3]: 132.2 mg/dL
RALB [3]: 4.1 g/dL
TBIL [3]: 0.4 mg/dL
TC [3]: 71.6 mg/dL
TG [3]: 35 mg/dL
TP [3]: 5.6 g/dL
gamma-GTP [3]: 1.4 IU/L
TERMINAL_BW [4]: 217.4 g
APTT [4]: 17.6 s
Bas [4]: 0%
Eos [4]: 1.2%
Fbg [4]: 207.2 mg/dL
Hb [4]: 13.2 g/dL
Ht [4]: 39.2%
Lym [4]: 73.4%
MCH [4]: 21.8 pg
MCHC [4]: 33.6%
MCV [4]: 64.9 fL
Mono [4]: 9.2%
Neu [4]: 16.4%
PT [4]: 11.4 s
Plat [4]: 113.3 x10_4/uL
RBC [4]: 604.6 x10_4/ul
Ret [4]: 10.6%
WBC [4]: 106.7 x10_2/uL
KIDNEY_L [4]: 1 g
KIDNEY_R [4]: 1 g
KIDNEY_TOTAL [4]: 1.9 g
LIVER [4]: 10.5 g
A/G [4]: 2.6
ALP [4]: 909 IU/L
ALT [4]: 37.8 IU/L
AST [4]: 64.8 IU/L
BUN [4]: 21.2 mg/dL
CRE [4]: 0.5 mg/dL
Ca [4]: 11 mg/dL
Cl [4]: 103.6 meq/L
DBIL [4]: 0 mg/dL
GLC [4]: 188 mg/dL
IP [4]: 8.8 mg/dL
K [4]: 4.9 meq/L
LDH [4]: 109.8 IU/L
Na [4]: 138.8 meq/L
PL [4]: 159.4 mg/dL
RALB [4]: 4 g/dL
TBIL [4]: 0.3 mg/dL
TC [4]: 83.6 mg/dL
TG [4]: 101.8 mg/dL
TP [4]: 5.6 g/dL
gamma-GTP [4]: 1 IU/L
TERMINAL_BW [5]: 206.9 g
APTT [5]: 17.9 s
Bas [5]: 0%
Eos [5]: 1.6%
Fbg [5]: 188.4 mg/dL
Hb [5]: 13.4 g/dL
Ht [5]: 40.1%
Lym [5]: 78%
MCH [5]: 21.9 pg
MCHC [5]: 33.4%
MCV [5]: 65.6 fL
Mono [5]: 7.2%
Neu [5]: 13.8%
PT [5]: 12.2 s
Plat [5]: 110.6 x10_4/uL
RBC [5]: 612.2 x10_4/ul
Ret [5]: 9.9%
WBC [5]: 86.8 x10_2/uL
KIDNEY_L [5]: 1 g
KIDNEY_R [5]: 1 g
KIDNEY_TOTAL [5]: 1.9 g
LIVER [5]: 9.6 g
A/G [5]: 2.5
ALP [5]: 733.4 IU/L
ALT [5]: 35.2 IU/L
AST [5]: 65.8 IU/L
BUN [5]: 8.8 mg/dL
CRE [5]: 0.5 mg/dL
Ca [5]: 10.3 mg/dL
Cl [5]: 104.4 meq/L
DBIL [5]: 0.02 mg/dL
GLC [5]: 212.4 mg/dL
IP [5]: 9.1 mg/dL
K [5]: 4.7 meq/L
LDH [5]: 106.2 IU/L
Na [5]: 139.8 meq/L
PL [5]: 148.4 mg/dL
RALB [5]: 3.8 g/dL
TBIL [5]: 0.4 mg/dL
TC [5]: 79.8 mg/dL
TG [5]: 77.8 mg/dL
TP [5]: 5.3 g/dL
gamma-GTP [5]: 1.8 IU/L
TERMINAL_BW [6]: 206.9 g
APTT [6]: 19.1 s
Bas [6]: 0%
Eos [6]: 1.2%
Fbg [6]: 205 mg/dL
Hb [6]: 13.5 g/dL
Ht [6]: 40.4%
Lym [6]: 81%
MCH [6]: 21.3 pg
MCHC [6]: 33.4%
MCV [6]: 63.9 fL
Mono [6]: 4.6%
Neu [6]: 13.4%
PT [6]: 11.8 s
Plat [6]: 112.3 x10_4/uL
RBC [6]: 632.8 x10_4/ul
Ret [6]: 13.6%
WBC [6]: 124.9 x10_2/uL
KIDNEY_L [6]: 1 g
KIDNEY_R [6]: 1 g
KIDNEY_TOTAL [6]: 1.9 g
LIVER [6]: 9.6 g
A/G [6]: 2.3
ALP [6]: 839.4 IU/L
ALT [6]: 31 IU/L
AST [6]: 59.4 IU/L
BUN [6]: 8.6 mg/dL
CRE [6]: 0.5 mg/dL
Ca [6]: 10.4 mg/dL
Cl [6]: 104.2 meq/L
DBIL [6]: 0.078 mg/dL
GLC [6]: 204.6 mg/dL
IP [6]: 9.7 mg/dL
K [6]: 5 meq/L
LDH [6]: 78 IU/L
Na [6]: 139 meq/L
PL [6]: 153.6 mg/dL
RALB [6]: 3.7 g/dL
TBIL [6]: 0.4 mg/dL
TC [6]: 82.6 mg/dL
TG [6]: 46 mg/dL
TP [6]: 5.4 g/dL
gamma-GTP [6]: 1.4 IU/L
TERMINAL_BW [7]: 200.3 g
APTT [7]: 17.6 s
Bas [7]: 0%
Eos [7]: 1%
Fbg [7]: 205.2 mg/dL
Hb [7]: 13.5 g/dL
Ht [7]: 40.5%
Lym [7]: 76.4%
MCH [7]: 21.8 pg
MCHC [7]: 33.4%
MCV [7]: 65.3 fL
Mono [7]: 7%
Neu [7]: 15.6%
PT [7]: 12 s
Plat [7]: 107.8 x10_4/uL
RBC [7]: 621.6 x10_4/ul
Ret [7]: 9.9%
WBC [7]: 72.9 x10_2/uL
KIDNEY_L [7]: 0.9 g
KIDNEY_R [7]: 1 g
KIDNEY_TOTAL [7]: 1.9 g
LIVER [7]: 8.2 g
A/G [7]: 2.7
ALP [7]: 857.6 IU/L
ALT [7]: 30.6 IU/L
AST [7]: 65.8 IU/L
BUN [7]: 12.8 mg/dL
CRE [7]: 0.4 mg/dL
Ca [7]: 10.8 mg/dL
Cl [7]: 105.6 meq/L
DBIL [7]: 0.04 mg/dL
GLC [7]: 190.8 mg/dL
IP [7]: 10 mg/dL
K [7]: 5 meq/L
LDH [7]: 96.4 IU/L
Na [7]: 137 meq/L
PL [7]: 154 mg/dL
RALB [7]: 4.1 g/dL
TBIL [7]: 0.4 mg/dL
TC [7]: 79.8 mg/dL
TG [7]: 49 mg/dL
TP [7]: 5.6 g/dL
gamma-GTP [7]: 1.4 IU/L
TERMINAL_BW [8]: 210.8 g
APTT [8]: 16.5 s
Bas [8]: 0%
Eos [8]: 2%
Fbg [8]: 202 mg/dL
Hb [8]: 13.8 g/dL
Ht [8]: 40.7%
Lym [8]: 70.4%
MCH [8]: 21.5 pg
MCHC [8]: 33.8%
MCV [8]: 63.5 fL
Mono [8]: 11.4%
Neu [8]: 16.4%
PT [8]: 11.8 s
Plat [8]: 115.4 x10_4/uL
RBC [8]: 640.6 x10_4/ul
Ret [8]: 10.2%
WBC [8]: 84.1 x10_2/uL
KIDNEY_L [8]: 0.9 g
KIDNEY_R [8]: 1 g
KIDNEY_TOTAL [8]: 1.9 g
LIVER [8]: 9.5 g
A/G [8]: 2.6
ALP [8]: 971 IU/L
ALT [8]: 41.8 IU/L
AST [8]: 68.2 IU/L
BUN [8]: 17.6 mg/dL
CRE [8]: 0.5 mg/dL
Ca [8]: 10.9 mg/dL
Cl [8]: 103.4 meq/L
DBIL [8]: 0.014 mg/dL
GLC [8]: 200.4 mg/dL
IP [8]: 8.5 mg/dL
K [8]: 4.9 meq/L
LDH [8]: 102.6 IU/L
Na [8]: 138 meq/L
PL [8]: 155 mg/dL
RALB [8]: 4 g/dL
TBIL [8]: 0.3 mg/dL
TC [8]: 80.8 mg/dL
TG [8]: 109.8 mg/dL
TP [8]: 5.5 g/dL
gamma-GTP [8]: 1.2 IU/L
